Assay results reported in patent US20100179225A1, “POI Prevention” (CYTOKINE PHARMASCIENCES, INC., priority 2008, published 2010).

Assays:
nitric oxide in serum = experiment: Nitrite and nitrate in serum after small intestinal transplantation (Nitrate/Nitrite Colorimetric Assay kit); type: in vivo, Lewis rats; conditions: 1 mg/kg i.v.
Protocol: (§1) Syngeneic orthotopic small intestinal transplantation was performed in Lewis rats as previously described (Schwarz N T, Nakao A, Nalesnik M A, Kalff J C, Murase N, Bauer A J. Protective effects of ex vivo graft radiation and tacrolimus on syngeneic transplanted rat small bowel motility. Surgery 2002; 131: 413-423). […] Then the graft vascular bed was perfused with chilled UW solution (University of Wisconcin) and the intestinal lumen was irrigated with 50 ml cold 0.9% NaCl solution containing […]. neomycin sulfate (Uro Nebacetin N, Nycomed, Germany). The graft was stored in cold UW solution during the preparation of the recipient. An end-to-side anastomosis between the graft aorta and the recipient infra-renal aorta, and between the graft vein and recipient vena cava, was performed. Approximately 80% of the recipient intestine was removed and enteric continuity was restored by proximal and distal end-to-end intestinal anastomoses.
(§2) To investigate the effect of CPSI-2364 on postoperative small bowel ischemia/reperfusion injury and muscular function, CPSI-2364 (1 mg/kg bodyweight, solved in 2.5% mannitol) or vehicle (2.5% mannitol) were administered intravenously once to the donor and the recipient 90 minutes before the beginning of the organ retrieval operation as well as the transplantation procedure that was described above. […]

IL-6 = experiment: Serum IL-6 after small intestinal transplantation (ELISA); type: in vivo, Lewis rats; conditions: 1 mg/kg i.v.
Protocol: as §1, §2

JNK/SAPK = conditions: v-myc immortalized spleen derived macrophage cell line; Lowenberg et al. J Immunol 2005; cited from earlier work

For `C/C(=N\NC(=N)N)c1cc(NC(=O)CCCCCCCCC(=O)Nc2cc(/C(C)=N/NC(=N)N)cc(/C(C)=N/NC(=N)N)c2)cc(/C(C)=N/NC(=N)N)c1` [Semapimod], the “nitric oxide levels within the serum” value (nitric oxide in serum; 3 hours after reperfusion) was 0.17 µmol/L, the “nitric oxide levels within the serum” value (nitric oxide in serum; 18 hours after reperfusion) was 1.69 µmol/L and the “release of IL-6 (serum)” value (IL-6; after 3 hours) was 345 pg/mL. For the same molecule, the “release of IL-6 (serum)” value (IL-6; after 18 hours) was 35 pg/mL and the JNK/SAPK phosphorylation (JNK/SAPK) was “reduce JNK/SAPK phosphorylation”.
